Positions count from the first letter of the chain named.

Common to all, as to format: in vitro ADME
Holding throughout (design): key to Function (SN-38G formation versus *1 allele): High: no significant difference in activity compared to *1 allele.; Low: significantly lower SN-38G formation versus *1 allele

One data set has as its target T1, UGT1A7*5 (Homo sapiens, UniProt Q9HAW7, G115S).
T1 construct: expressed in transfected cells
T1 sequence (Q9HAW7 26-530 G115S): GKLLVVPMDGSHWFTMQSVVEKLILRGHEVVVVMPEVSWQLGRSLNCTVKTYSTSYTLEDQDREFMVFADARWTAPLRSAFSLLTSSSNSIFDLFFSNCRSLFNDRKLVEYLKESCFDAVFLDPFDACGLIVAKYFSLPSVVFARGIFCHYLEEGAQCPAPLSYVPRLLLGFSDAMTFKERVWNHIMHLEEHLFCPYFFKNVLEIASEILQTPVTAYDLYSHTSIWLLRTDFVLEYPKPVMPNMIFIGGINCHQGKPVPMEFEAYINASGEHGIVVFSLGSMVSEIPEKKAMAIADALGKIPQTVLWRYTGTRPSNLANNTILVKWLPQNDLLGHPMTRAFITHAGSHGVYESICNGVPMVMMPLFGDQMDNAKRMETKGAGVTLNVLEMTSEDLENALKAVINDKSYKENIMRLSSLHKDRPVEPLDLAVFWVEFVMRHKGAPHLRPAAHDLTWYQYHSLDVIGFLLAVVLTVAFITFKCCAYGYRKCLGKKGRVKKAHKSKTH
Briefly: SN-38 glucuronidation by microsomes of HEK293 cells expressing UGT1A7*5. As for the experimental part:
(§1) Western blot analyses of UGT1A7 and UGT1A9 variants expressed in HEK293 cells were performed on microsomal proteins (10 μg) separated on a 10% SDS-polyacrylamide gel. After transferring the proteins, the membranes were probed with an anti-UGT1A RC-71 polyclonal antibody and with an anti-calnexin antibody. The relative levels of UGT1A9 (a) and UGT1A7 proteins (b) were determined by semi-quantitative densitometric analysis of the Enhanced chemiluminescence (ECL) image. The in vitro SN-38 activity was assessed using microsomal fractions prepared from HEK293 cells expressing the *1 and variant UGT1A9 (c) and UGT1A7 (d) alleles and incubated with 5 μM of SN-38 as described in Materials and Methods.
(§2) For the determination of Vmax and Km.

In the next data set the target is T2, UGT1A7*9 (Homo sapiens, UniProt Q9HAW7, G115S/N129K/R131K).
T2 construct: expressed in transfected cells
T2 sequence (Q9HAW7 26-530 G115S/N129K/R131K): T1 sequence (Q9HAW7 26-530 G115S) with N104K, R106K
Briefly: SN-38 glucuronidation by microsomes of HEK293 cells expressing UGT1A7*9. As for the experimental part: as §1, §2

The next data set has as its target T3, UGT1A7*6 (Homo sapiens, UniProt Q9HAW7, E139D).
T3 construct: expressed in transfected cells
T3 sequence (Q9HAW7 26-530 E139D): T1 sequence (Q9HAW7 26-530 G115S) with S90G, E114D
Kind of data set: SN-38 glucuronidation by microsomes of HEK293 cells expressing UGT1A7*6. As for the experimental part: as §1, §2

Regarding `CCc1c2c(nc3ccc(O)cc13)-c1cc3c(c(=O)n1C2)COC(=O)[C@]3(O)CC` [SN-38, 7-ethyl-10-hydroxycamptothecin], the “SN-38 glucuronidating activity of the allele (in words)” value at UGT1A7*5 was “low”; on UGT1A7*9, “highest and low”; on UGT1A7*6, “highest”. Besides, the “Function (SN-38G formation versus *1 allele)” value at UGT1A7*5 (in vitro experiments) was “Low”; at UGT1A7*9 (in vitro experiments), “Low”; at UGT1A7*6 (in vitro experiments), “High”. Also, on UGT1A7*5 (range given for *5, *7 and *8 together), the “lower rates of SN-38G formation compared to UGT1A7*1” value is on record as 38-76%.

The values are drawn from US20060183119A1, “Method for determining predisposition to a physiological reaction in a patient” (UNIVERSITE LAVAL, priority 2002, published 2006).
